Patent US20260077051A1, “COMPOUNDS FOR THE DEGRADATION OF EGFR KINASE” (BeOne Medicines I GmbH, priority 2023, published 2026)

Key:
[1] = molecular target: T1, EGFR L858R (BaF3-L858R cells) (Homo sapiens, UniProt P00533, L858R); experiment: EGFR degradation in BaF3-L858R cells (HTRF assay); assay type: cell-based; conditions: 16 h treatment; for DC50: IC50(DC50) of EGFR degradation; for Dmax: maximum percentage of inhibition (degradation)
T1 construct: host or cells: BaF3
In short: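 BaF3-L858R cells were exposed for 16 h at 37° C to 8 doses, 5-fold dilutions starting at 10 uM final, in 0.1% DMSO medium. Lysates were incubated overnight with HTRF antibodies and read at 665/620 nm. Degradation was taken relative to DMSO control, and DC50 and Dmax came from a four-parameter fit.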

[2] = molecular target: T2, EGFR-L858R/C797S (H1975-clone #8 cells) (Homo sapiens, UniProt P00533, C797S/L858R); experiment: EGFR degradation in H1975-clone#8 (L858R/C797S) cells (HTRF assay); assay type: cell-based; conditions: 16 h treatment; for DC50: IC50(DC50) of EGFR degradation; for Dmax: maximum percentage of inhibition (degradation)
T2 construct: expressed in transfected cells; host or cells: H1975 (lentiviral transduction, endogenous EGFR knocked out, single clone #8)
Experimental: H1975-clone #8 (L858R/C797S): EGFR-L858R/C797S were stably expressed in H1975 cell lines by lentivirus-mediated over-expression, respectively. The EGFR over-expressed cells then underwent knockout, in which the EGFR targeting sgRNA was designed to only target the endogenous EGFR copies and preserve the exogenous EGFR copies. Followed by the knockout, the edited H1975 cells were seeded in 96 well plates at the concentration of […], cultured for about 2 weeks to allow single clones formation. The formed clones were screened by DNA sequencing and whole exon sequencing analysis for the desired edition. H1975-clone #8 were finally confirmed as homozygous L858R/C797S EGFR clones.
H1975-#8 and BaF3-L858R cells are treated with compounds diluted in 0.1% DMSO cell culture medium on day 2, incubate for 16 h, 37° C., 5% CO2. the final concentration of compounds in all assay is start with 10 uM, 5-fold dilution, total 8 doses were included.
After 16 h treatment, for H1975-#8 cells, add 100 ul HTRF 1× lysis buffer to each well; for BaF3-L858R cells, add 20 μl 4× lysis buffer to each well; seal the plate and incubate 1 hour at room temperature on a plate shaker; Once the cells are lysed, 16 μL of cell lysate are transferred to a PE 384-well HTRF detection plate; 4 μL of pre-mixed HTRF antibodies are added to each well; Cover the plate with a plate sealer, spin 1000 rpm for 1 min, Incubate overnight at room temperature; Read on BMG PheraStar with HTRF protocol (337 nm-665 nm-620 nm).
The inhibition (degradation) percentage of the compound was calculated by the following equation:
High control=Cell group with added DMSO and without compound, indicating microplate readings without EGFR degradation;
Dmax is the maximum percentage of inhibition (degradation).
The IC50(DC50) value of a compound can be obtained by fitting the following equation
Wherein, X and Y are known values, and IC50, Hillslope, Top and Bottom are the parameters obtained by fitting with software. Y is the inhibition percentage (calculated from the equation), X is the concentration of the compound; IC50 is the concentration of the compound when the 50% inhibition is reached. The smaller the IC50 value is, the stronger the inhibitory ability of the compound is. Vice versa, the higher the IC50 value is, the weaker the ability the inhibitory ability of the compound is; Hillslope represents the slope of the fitted curve, generally around 1*; Bottom represents the minimum value of the curve obtained by data fitting, which is generally 0%±20%; Top represents the maximum value of the curve obtained by data fitting, which is generally 100%±20%. The experimental data were fitted by calculating and analyzing with Dotmatics data analysis software.

T2 sequence (P00533 25-1210 C797S/L858R): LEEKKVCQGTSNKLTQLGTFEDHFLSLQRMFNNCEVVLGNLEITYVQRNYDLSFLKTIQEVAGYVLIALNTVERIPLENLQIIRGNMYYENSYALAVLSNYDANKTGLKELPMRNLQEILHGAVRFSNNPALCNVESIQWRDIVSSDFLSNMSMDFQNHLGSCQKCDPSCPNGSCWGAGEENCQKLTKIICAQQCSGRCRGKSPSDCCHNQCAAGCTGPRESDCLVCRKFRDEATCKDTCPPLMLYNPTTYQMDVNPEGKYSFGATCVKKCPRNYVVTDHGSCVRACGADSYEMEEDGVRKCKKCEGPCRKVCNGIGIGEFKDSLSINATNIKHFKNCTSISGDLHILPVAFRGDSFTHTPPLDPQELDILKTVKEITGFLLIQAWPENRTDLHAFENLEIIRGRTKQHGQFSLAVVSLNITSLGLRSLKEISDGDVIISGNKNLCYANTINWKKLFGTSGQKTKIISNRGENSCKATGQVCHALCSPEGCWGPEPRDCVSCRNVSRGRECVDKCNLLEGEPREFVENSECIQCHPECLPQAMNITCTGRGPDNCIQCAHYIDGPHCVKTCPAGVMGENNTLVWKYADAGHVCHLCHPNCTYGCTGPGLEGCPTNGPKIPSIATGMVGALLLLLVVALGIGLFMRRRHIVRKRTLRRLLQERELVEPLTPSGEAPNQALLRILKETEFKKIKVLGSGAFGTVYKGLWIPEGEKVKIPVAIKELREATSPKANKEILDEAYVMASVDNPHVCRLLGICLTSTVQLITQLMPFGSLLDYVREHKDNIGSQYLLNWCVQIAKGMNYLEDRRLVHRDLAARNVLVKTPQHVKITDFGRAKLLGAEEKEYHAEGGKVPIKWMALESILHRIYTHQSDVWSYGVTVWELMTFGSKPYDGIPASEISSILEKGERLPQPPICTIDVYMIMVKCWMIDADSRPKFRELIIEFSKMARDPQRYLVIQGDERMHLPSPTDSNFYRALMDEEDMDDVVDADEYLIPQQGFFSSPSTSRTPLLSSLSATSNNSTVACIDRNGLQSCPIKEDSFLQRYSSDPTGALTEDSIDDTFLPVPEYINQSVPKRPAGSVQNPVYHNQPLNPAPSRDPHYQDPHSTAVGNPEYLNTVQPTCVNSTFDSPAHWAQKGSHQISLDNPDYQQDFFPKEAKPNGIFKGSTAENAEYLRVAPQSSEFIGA
T1 sequence (P00533 25-1210 L858R): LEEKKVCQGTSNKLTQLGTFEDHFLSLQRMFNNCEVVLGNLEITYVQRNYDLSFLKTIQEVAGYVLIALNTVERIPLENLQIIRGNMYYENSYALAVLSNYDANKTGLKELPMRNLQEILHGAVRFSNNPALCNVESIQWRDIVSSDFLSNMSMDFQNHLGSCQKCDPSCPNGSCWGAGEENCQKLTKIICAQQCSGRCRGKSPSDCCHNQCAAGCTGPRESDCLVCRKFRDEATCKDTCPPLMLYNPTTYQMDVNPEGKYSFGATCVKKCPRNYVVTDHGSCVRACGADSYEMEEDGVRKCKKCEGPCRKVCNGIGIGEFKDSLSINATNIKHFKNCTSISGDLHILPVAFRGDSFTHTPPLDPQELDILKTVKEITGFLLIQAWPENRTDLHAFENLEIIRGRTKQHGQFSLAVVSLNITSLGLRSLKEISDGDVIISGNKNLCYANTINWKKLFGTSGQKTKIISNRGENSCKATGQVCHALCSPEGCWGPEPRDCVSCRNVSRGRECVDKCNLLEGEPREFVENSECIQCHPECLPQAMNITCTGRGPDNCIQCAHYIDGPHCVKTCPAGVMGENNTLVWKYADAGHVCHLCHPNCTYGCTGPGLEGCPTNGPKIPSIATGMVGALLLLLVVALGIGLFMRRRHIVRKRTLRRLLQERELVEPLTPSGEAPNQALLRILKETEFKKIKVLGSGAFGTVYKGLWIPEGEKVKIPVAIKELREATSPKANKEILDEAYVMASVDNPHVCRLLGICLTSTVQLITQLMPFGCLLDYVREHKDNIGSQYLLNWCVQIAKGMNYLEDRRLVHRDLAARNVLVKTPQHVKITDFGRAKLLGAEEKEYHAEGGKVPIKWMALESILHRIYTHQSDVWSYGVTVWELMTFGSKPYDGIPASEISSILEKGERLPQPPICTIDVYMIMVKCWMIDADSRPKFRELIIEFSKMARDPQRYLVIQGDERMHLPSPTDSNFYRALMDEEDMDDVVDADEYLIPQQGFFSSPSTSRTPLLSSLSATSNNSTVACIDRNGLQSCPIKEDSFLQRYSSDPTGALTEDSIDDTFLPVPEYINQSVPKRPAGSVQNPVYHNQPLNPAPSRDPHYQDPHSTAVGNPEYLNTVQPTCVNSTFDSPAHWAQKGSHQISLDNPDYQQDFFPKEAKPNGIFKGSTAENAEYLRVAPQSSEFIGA

| SMILES | DC50 [1] [nM] | Dmax [1] [%] | DC50 [2] [nM] | Dmax [2] [%] |
| --- | --- | --- | --- | --- |
| CCc1nc(C2CCC(=O)NC2=O)ccc1N1CC[C@@H](N2CCN(c3ccc4c(c3)N3C[C@H]5C[C@@H]5CCOc5c(cnn5C)-c5cc(cc(C)n5)C(=O)/N=C/3N4)CC2)[C@@H](F)C1 (stereo partly drawn) [Example 32, 3-(5-((3S,4R)-4-(4-((7^1S,7^2R,E)-1^1,2^6-dimethyl-3-oxo-5^2,5^3-dihydro-1^1H,5^1H-10-oxa-4-aza-5 (2,1)-benzo[d]imidazola-2 (2,4)-pyridina-1 (4,5)-pyrazola-7 (1,2)-cyclopropanacyclodecaphane-5^6-yl)piperazin-1-yl)-3-fluoropiperidin-1-yl)-6-ethylpyridin-2-yl)piperidine-2,6-dione] | 6.44 | 84.5 | 10.5 | 60.9 |
| Cc1cc2cc(n1)-c1cnn(C)c1OCC[C@H]1C[C@@H]1CN1/C(=N/C2=O)Nc2ccc(N3CCN([C@@H]4CCN(c5c(C)cc(C6CCC(=O)NC6=O)nc5C)C[C@@H]4F)CC3)cc21 (stereo partly drawn) [Example 33, 3-(5-((3S,4R)-4-(4-((7^1S,7^2R,E)-1^1,2^6-dimethyl-3-oxo-5^2,5^3-dihydro-1^1H,5^1H-10-oxa-4-aza-5 (2,1)-benzo[d]imidazola-2 (2,4)-pyridina-1 (4,5)-pyrazola-7 (1,2)-cyclopropanacyclodecaphane-5^6-yl)piperazin-1-yl)-3-fluoropiperidin-1-yl)-4,6-dimethylpyridin-2-yl)piperidine-2,6-dione] | 8.38 | 89.1 | 4.74 | 44.3 |
| Cc1cc2cc(n1)-c1cnn(C)c1OCC[C@H]1C[C@@H]1CN1/C(=N/C2=O)Nc2ccc(N3CCN([C@@H]4CCN(c5cc(F)c(C6CCC(=O)NC6=O)nc5C)C[C@@H]4F)CC3)cc21 (stereo partly drawn) [Example 34, 3-(5-((3S,4R)-4-(4-((7^1S,7^2R,E)-1^1,2^6-dimethyl-3-oxo-5^2,5^3-dihydro-1^1H,5^1H-10-oxa-4-aza-5 (2,1)-benzo[d]imidazola-2 (2,4)-pyridina-1 (4,5)-pyrazola-7 (1,2)-cyclopropanacyclodecaphane-5^6-yl)piperazin-1-yl)-3-fluoropiperidin-1-yl)-3-fluoro-6-methylpyridin-2-yl)piperidine-2,6-dione] | 7.47 | 83.8 | 11.9 | 57 |
| Cc1cc2cc(n1)-c1cnn(C)c1OCC[C@H]1C[C@@H]1CN1/C(=N/C2=O)Nc2ccc(N3CCN(CCc4cc(F)c([C@H]5CCC(=O)NC5=O)c(F)c4)C(C4CCOC4)C3)cc21 (stereo partly drawn) [Example 35, (3R)-3-(4-(2-(4-((7^1S,7^2R,E)-1^1,2^6-dimethyl-3-oxo-5^2,5^3-dihydro-1^1H,5^1H-10-oxa-4-aza-5 (2,1)-benzo[d]imidazola-2 (2,4)-pyridina-1 (4,5)-pyrazola-7 (1,2)-cyclopropanacyclodecaphane-5^6-yl)-2-(tetrahydrofuran-3-yl)piperazin-1-yl)ethyl)-2,6-difluorophenyl)piperidine-2,6-dione] | 22 | 59 | 8.44 | 41.4 |
| Cc1cc2cc(n1)-c1cnn(C)c1OCC[C@H]1C[C@@H]1CN1/C(=N/C2=O)Nc2ccc(N3CCN(C4CN(C5CCN(c6ccc(C7CCC(=O)NC7=O)nc6C)CC5)C4)C[C@@H]3C)cc21 (stereo partly drawn) [Example 36, 3-(5-(4-(3-((S)-4-((7^1S,7^2R,E)-1^1,2^6-dimethyl-3-oxo-5^2,5^3-dihydro-1^1H,5^1H-10-oxa-4-aza-5 (2,1)-benzo[d]imidazola-2 (2,4)-pyridina-1 (4,5)-pyrazola-7 (1,2)-cyclopropanacyclodecaphane-5^6-yl)-3-methylpiperazin-1-yl)azetidin-1-yl)piperidin-1-yl)-6-methylpyridin-2-yl)piperidine-2,6-dione] | 13.4 | 68.5 | 2.61 | 41.7 |
| Cc1cc2cc(n1)-c1cnn(C)c1OCC[C@H]1C[C@@H]1CN1/C(=N/C2=O)Nc2ccc(N3CCN(C4CN(C5CCN(c6ccc(C7CCC(=O)NC7=O)nc6C)CC5)C4)C[C@H]3C)cc21 (stereo partly drawn) [Example 37, 3-(5-(4-(3-((R)-4-((7^1S,7^2R,E)-1^1,2^6-dimethyl-3-oxo-5^2,5^3-dihydro-1^1H,5^1H-10-oxa-4-aza-5 (2,1)-benzo[d]imidazola-2 (2,4)-pyridina-1 (4,5)-pyrazola-7 (1,2)-cyclopropanacyclodecaphane-5^6-yl)-3-methylpiperazin-1-yl)azetidin-1-yl)piperidin-1-yl)-6-methylpyridin-2-yl)piperidine-2,6-dione] | 7.92 | 64.5 | 8.34 | 55.9 |
| Cc1cc2cc(n1)-c1cnn(C)c1OCC[C@]1(C)C[C@H]1CN1/C(=N/C2=O)Nc2ccc(N3CCN([C@@H]4CCN(c5cc(F)c(C6CCC(=O)NC6=O)nc5C)C[C@@H]4F)CC3)cc21 (stereo partly drawn) [Example 43, 3-(3-fluoro-5-((3S,4R)-3-fluoro-4-(4-((7^1R,7^2S,E)-1^1,2^6,7^2-trimethyl-3-oxo-5^2,5^3-dihydro-1^1H,5^1H-10-oxa-4-aza-5 (2,1)-benzo[d]imidazola-2 (2,4)-pyridina-1 (4,5)-pyrazola-7 (1,2)-cyclopropanacyclodecaphane-5^6-yl)piperazin-1-yl)piperidin-1-yl)-6-methylpyridin-2-yl)piperidine-2,6-dione] | 1.74 | 86.2 | 2.81 | 88.8 |
| Cc1cc2cc(n1)-c1cnn(C)c1OCC[C@]1(C)C[C@H]1CN1/C(=N/C2=O)Nc2ccc(N3CCN([C@@H]4CCN(c5ccc(C6CCC(=O)NC6=O)nc5C)C[C@@H]4F)CC3)cc21 (stereo partly drawn) [Example 49, 3-(5-((3S,4R)-3-fluoro-4-(4-((7^1R,7^2S,E)-1^1,2^6,7^2-trimethyl-3-oxo-5^2,5^3-dihydro-1^1H,5^1H-10-oxa-4-aza-5 (2,1)-benzo[d]imidazola-2 (2,4)-pyridina-1 (4,5)-pyrazola-7 (1,2)-cyclopropanacyclodecaphane-5^6-yl)piperazin-1-yl)piperidin-1-yl)-6-methylpyridin-2-yl)piperidine-2,6-dione] | 0.418 | 86.7 | 0.942 | 86.9 |
| Cc1cc2cc(n1)-c1cnn(C)c1OCC[C@]1(C)C[C@H]1CN1/C(=N/C2=O)Nc2ccc(N3CCN(C4CCN(c5cc(F)c(C6CCC(=O)NC6=O)nc5C)CC4)CC3)cc21 (stereo partly shown) [Example 54, 3-(3-fluoro-6-methyl-5-(4-(4-((7^1R,7^2S,E)-1^1,2^6,7^2-trimethyl-3-oxo-5^2,5^3-dihydro-1^1H,5^1H-10-oxa-4-aza-5 (2,1)-benzo[d]imidazola-2 (2,4)-pyridina-1 (4,5)-pyrazola-7 (1,2)-cyclopropanacyclodecaphane-5^6-yl)piperazin-1-yl)piperidin-1-yl)pyridin-2-yl)piperidine-2,6-dione] | 3.35 | 91.9 | 2.11 | 77.7 |
| Cc1cc2cc(n1)-c1cnn(C)c1OCC[C@]1(C)C[C@H]1CN1/C(=N/C2=O)Nc2ccc(N3CCN([C@@H]4CCN(c5cccc6c5C(C)(C)C(=O)N6C5CCC(=O)NC5=O)C[C@@H]4F)CC3)cc21 (stereo partly drawn) [Example 57, 3-(4-((3S,4R)-3-fluoro-4-(4-((7^1R,7^2S,E)-1^1,2^6,7^2-trimethyl-3-oxo-5^2,5^3-dihydro-1^1H,5^1H-10-oxa-4-aza-5 (2,1)-benzo[d]imidazola-2 (2,4)-pyridina-1 (4,5)-pyrazola-7 (1,2)-cyclopropanacyclodecaphane-5^6-yl)piperazin-1-yl)piperidin-1-yl)-3,3-dimethyl-2-oxoindolin-1-yl)piperidine-2,6-dione] | 3.2 | 91.3 | 4.21 | 61.7 |
